Tests used:
immobility time = experiment: Forced swim test in TrkB F616A knockin mice with saline or 1NMPP1 pretreatment; assay type: in vivo; details: 1NMPP1 25 μM in drinking water
Protocol: To assess whether the behavior responses by 7,8-DHF and its derivative are mediated by TrkB receptor, TrkB F616A knockin mice were utilized. The transgenic mice were subjected to saline or 1NMPP1 pretreatment (25 μM), respectively (drinking water provided one day prior to drug injection and maintained throughout whole experiment). The control and/or drugs were provided for five days. […] (Data presented in FIGS. 34, 35, and 36 as mean±SEM; *p<0.05 against vehicle, #P<0.01 against vehicle and ***P<0.0001 against vehicle, student t-test.)

TrkB F616A = molecular target: T1, TrkB F616A (Mus musculus, UniProt P15209, F616A); experiment: TrkB phosphorylation in cortical neurons from TrkB F616A knockin mice; assay type: cell-based; details: inhibitor 100 nM, pretreated 30 minutes
T1 construct: endogenous in cells; host or cells: cortical neurons of TrkB F616A knock-in mice
T1 sequence (P15209 32-821 F616A): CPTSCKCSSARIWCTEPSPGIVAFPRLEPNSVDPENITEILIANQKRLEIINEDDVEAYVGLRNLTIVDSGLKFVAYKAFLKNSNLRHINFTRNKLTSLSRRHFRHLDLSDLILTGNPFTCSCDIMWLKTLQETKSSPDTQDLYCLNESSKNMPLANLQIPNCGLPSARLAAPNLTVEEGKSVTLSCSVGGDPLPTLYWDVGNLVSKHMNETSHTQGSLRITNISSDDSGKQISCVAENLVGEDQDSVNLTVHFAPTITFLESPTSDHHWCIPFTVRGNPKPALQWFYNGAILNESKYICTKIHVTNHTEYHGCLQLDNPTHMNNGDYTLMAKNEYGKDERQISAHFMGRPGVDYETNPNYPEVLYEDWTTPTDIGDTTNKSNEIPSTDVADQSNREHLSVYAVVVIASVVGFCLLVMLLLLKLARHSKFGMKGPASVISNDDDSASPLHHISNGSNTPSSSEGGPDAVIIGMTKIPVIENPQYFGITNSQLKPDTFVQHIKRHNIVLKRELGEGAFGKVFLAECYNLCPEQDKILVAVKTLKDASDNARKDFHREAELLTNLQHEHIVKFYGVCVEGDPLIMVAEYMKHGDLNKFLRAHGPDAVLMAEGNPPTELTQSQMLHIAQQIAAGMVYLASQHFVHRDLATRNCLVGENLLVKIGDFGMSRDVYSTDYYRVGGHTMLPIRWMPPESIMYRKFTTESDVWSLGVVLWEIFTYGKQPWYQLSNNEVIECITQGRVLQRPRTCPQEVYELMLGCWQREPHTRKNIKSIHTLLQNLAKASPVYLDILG
Protocol: (§1) To explore whether the neuroprotective action of 7,8-dihydroxyflavone is dependent on TrkB activation in vivo, TrkB F616A knockin mice were used. […] To further assess whether 7,8-dihydroxyflavone can mimic BDNF, cortical neurons were prepared from TrkB F616A knockin mice. The cortical neurons were pretreated for 30 minutes with either K252a Trk tyrosine kinase inhibitor (100 nM) or 1NMPP1 inhibitor (100 nM) followed by 0.5 μM 7,8-dihydroxyflavone for 30 minutes.

KA-provoked apoptosis = experiment: KA-provoked neuronal cell death in TrkB F616A knockin mice, intraperitoneal (caspase-3 immunoblot); assay type: in vivo
Protocol: To determine if 1NMPP1 would make neurons treated with 7,8-dihydroxyflavone vulnerable to KA-provoked neuronal cell death, TrkF616A knockin mice were fed with 1NMPP1 (25 mM) in drinking water one day prior to pharmacological reagent treatment. The next day, the mice were intraperitoneally injected with KA (25 mg/kg), or 7,8-dihydroxyflavone (5 mg/kg) 4 hours prior to KA injection. The control mice were injected with either KA or 7,8-dihydroxyflavone alone, or the mice were administered 7,8-dihydroxyflavone 4 hours before KA. In 4 days, the mice were sacrificed and the brains were homogenated and ultracentrifuged. The supernatant was employed for SDS-PAGE and immunoblotting analysis.

Akt and Erk1/2 = Akt and Erk1/2 activation in cortical neurons from TrkB F616A knockin mice; assay type: cell-based; details: inhibitor 100 nM
Protocol: as §1

TrkB [1] = molecular target: T2, TrkB (Rattus norvegicus, UniProt Q63604); experiment: TrkB activation in primary cortical neurons (p-TrkB Y817 immunoblotting); assay type: cell-based; parameters: endogenous in cells; host or cells: primary cortical neurons; details: 500 nM, 30 min, FIG. 27 left
Protocol: Primary cultured rat cortical neurons were prepared as follows. E17 rat pups were decapitated and cortex was extirpated, cross chopped, and suspended by pipetting for separation in 5% fetal calf serum (FCS), 5% horse serum (HS) DMEM. The cell suspension was then centrifuged at 250×g for 5 minutes. This operation was repeated again. Cells were seeded into polyethyleneimine-coated 10 cm^2 dishes and 12-well plates including coated-coverslips and incubated at 37° C. in 5% CO2/95% air. After 3 hours, the culture medium was changed to Neurobasal containing B-27 supplement (Invitrogen; Carlsbad, Calif.) and incubated for 4 days. For maintenance, half of the culture medium was changed to fresh Neurobasal/B27 every 4 days. After 1 week, the dished cultured neurons were ready for use.
To compare the TrkB activation by the synthetic compounds of Examples 9 and 10 (see FIG. 26), primary cortical cultures were prepared. The cortical neurons were treated with 500 nM of various compounds for 30 min and collected the cell lysates. […] Replacing the H-bond acceptor O atom with hydrogen bond donor NH reduced its stimulatory effect. […] In comparison, 7,8-DHF provoked TrkB activation with the minimal concentration of 100 nM (FIG. 27, right panels).
Target sequence in this assay (Q63604 32-821): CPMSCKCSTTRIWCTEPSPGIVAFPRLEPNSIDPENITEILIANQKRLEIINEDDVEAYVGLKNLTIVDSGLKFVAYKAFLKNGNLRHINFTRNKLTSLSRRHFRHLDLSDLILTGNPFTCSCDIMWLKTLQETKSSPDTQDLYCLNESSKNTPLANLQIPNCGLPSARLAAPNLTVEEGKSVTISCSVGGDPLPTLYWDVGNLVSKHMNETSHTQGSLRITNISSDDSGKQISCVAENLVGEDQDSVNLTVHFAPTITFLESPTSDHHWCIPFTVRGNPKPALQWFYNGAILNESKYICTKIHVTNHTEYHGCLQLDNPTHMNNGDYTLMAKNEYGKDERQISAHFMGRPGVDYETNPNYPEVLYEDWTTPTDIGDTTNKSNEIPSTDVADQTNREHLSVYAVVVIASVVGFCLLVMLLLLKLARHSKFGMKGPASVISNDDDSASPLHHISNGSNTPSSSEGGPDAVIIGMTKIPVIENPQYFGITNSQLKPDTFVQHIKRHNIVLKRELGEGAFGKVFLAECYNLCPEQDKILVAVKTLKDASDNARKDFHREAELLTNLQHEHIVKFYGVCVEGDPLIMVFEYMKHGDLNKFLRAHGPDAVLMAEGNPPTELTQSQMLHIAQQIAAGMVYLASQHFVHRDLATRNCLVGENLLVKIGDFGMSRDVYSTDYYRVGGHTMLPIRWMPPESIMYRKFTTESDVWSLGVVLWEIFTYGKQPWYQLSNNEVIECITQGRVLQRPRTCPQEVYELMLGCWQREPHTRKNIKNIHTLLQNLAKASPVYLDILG

T48 cells = experiment: Fluorescent apoptotic assay (Staurosporine, MR(DEVD)2) in TrkB stably transfected T48 cells; assay type: cell-based, murine; details: for EC50: Mus musculus, T48 cells, FIG. 5, read-out: effective concentration at which 50% (EC50) of the cells are protected from apoptosis; for suppression of apoptosis in T48 cell line: Staurosporine-induced apoptosis, FIG. 1B and FIG. 4
From the text: Create and test reporter cell lines. In order to identify small molecules that mimic BDNF and activate TrkB, TrkB stably transfected murine cell lines were created. The T48 and T62 cell lines were created by transfecting basal forebrain SN56 cells, which express negligible TrkB, with a TrkB expression construct. […] To test resistance to apoptosis, SN56 cells and the T48 cell line were either untreated or treated with BDNF, and then subjected to an apoptotic assay. Briefly, the cells were treated with 0.75 μM Staurosporine for 9 hours, and 1 hour before the termination of the experiment, the cells were treated with 10 μM MR (DEVD)2. The cells were then fixed with 4% paraformaldehyde for 15 minutes, washed with phosphate buffered saline (PBS), and incubated with Hoechst 33342 for 10 minutes. Cover slides were washed with PBS, mounted, and the cells were examined using a fluorescent microscope to see which cells turned red upon caspase cleavage.
Cell-based screen. To screen a large number of chemicals, a cell-based apoptic assay was developed using a cell permeable fluorescent dye, MR (DEVD)2, which turns red upon caspase cleavage in apoptotic cells. SN56 and T48 cells were plated at 10,000 cells per well in multiple 96-well plates and exposed to 2000 biologically active compounds from the Spectrum Collection Library for 30 minutes at a concentration of 10 μM in DMSO. Following exposure to the compounds, the cells were subjected to the developed fluorescent apoptotic assay described above (method schematically shown in FIG. 2).
In the initial screen, 5 of the 66 positive compounds were flavone derivatives or similar compounds. […] To compare the apoptosis inhibitory activity, the flavone derivatives were preincubated with SN56 and T48 cells, and subsequently were subjected to the fluorescent apoptotic assay as described above. […] Additionally, the effective concentration at which 50% (EC50) of the cells are protected from apoptosis was determined for 7,8-dihydroxyflavone, Cianidanol, Pinocembrin and Diosmetin.

Erk = experiment: Western analysis of Erk phosphorylation in hippocampal neurons; assay type: cell-based; details: FIG. 9
Protocol: (§2) To further examine whether 7,8-dihydroxyflavone can stimulate TrkB-mediated downstream signaling cascades, Western analysis was performed.
(§3) To probe the time course of 7,8-dihydroxyflavone triggered TrkB activation, hippocampal neurons were treated with 7,8-dihydroxyflavone at 500 nM and phosphorylation of Erk and Akt was determined over time by Western analysis. […] Stimulation of Erk and Akt by 7,8-dihydroxyflavone also occurred in a dose dependent manner.

hippocampal neurons = experiment: Glutamate-triggered apoptosis in hippocampal neurons; assay type: cell-based; details: pretreated 30 minutes, 50 μM glutamate for 16 hours, compared with BDNF, FIG. 6
Protocol: To examine whether these compounds could promote neuronal survival, hippocampal neurons were prepared and the cultures were pretreated with various flavone derivatives for 30 minutes, followed by treatment with 50 μM glutamate for 16 hours.

Caspase-3 activation = experiment: Glutamate-provoked Caspase-3 activation in wild-type and TrkB-/- cortical neurons; assay type: cell-based, mice; details: control compounds, FIG. 21
Protocol: To determine whether 7,8-dihydroxyflavone can selectively activate TrkB receptor and prevent neuronal cell death, cortical neurons were prepared from homozygous pups of TrkB+/−mice, which were mated to the same genotype. […] Glutamate nonselectively elicited weak TrkA phosphorylation in both wild-type and TrkB-null neurons (FIG. 21, row 3).

Akt = experiment: Western analysis of Akt phosphorylation in hippocampal neurons; assay type: cell-based; details: FIG. 9
Protocol: as §2, §3

TrkB [2] = molecular target: T2, TrkB; experiment: TrkB receptor dimerization in cotransfected HEK293 cells (GST pull-down); assay type: cell-based; parameters: expressed in transfected cells; host or cells: HEK293
Protocol: BDNF is known to bind the TrkB receptor and provoke its dimerization (Barbacid, J. Neurobiol., 25:1386-1403, 1994; Klein et al, Cell, 66:395-403, 1991). To explore whether 7,8-dihydroxyflavone triggers TrkB receptor dimerization, HEK293 cells were cotransfected with GST-TrkB and HA-TrkB or HA-TrkA. The cells were then treated with BDNF or small flavone compounds (0.5 μM) for 30 minutes. The cells were harvested, washed once in PBS, and lysed in 1 ml lysis buffer (50 mM Tris, ph 7.4, 150 mM NaCl, 1 mM EDTA, 0.5% Triton X-100, 1.5 mM Na3VO4, 50 mM NaF, 10 mM sodium pyrophosphate, 10 mM sodium β-glycerophosphate, 1 mM phenylmethylsulfonyl fluoride (PMSF), 5 mg/ml aprotinin, 1 mg/ml leupeptin, 1 mg/ml pepstatin A) and centrifuged for 10 minutes at 14,000×g at 4° C. The supernatant was transferred to a fresh tube and transfected TrkB receptor was separated from the supernatant with glutathione beads, and the coprecipitated proteins were resolved on SDS-PAGE.
Target sequence in this assay (Q63604 32-821): as above
Target sequence in this assay (Q63604 32-821): as above

immobility = experiment: Forced swim test, 5 days intraperitoneal; assay type: in vivo, mice; details: intraperitoneally for 5 days; imipramine 20 mg/kg, amitryptyline 15 mg/kg, 7,8-dihydroxyflavone 5 mg/kg; FIG. 25
Protocol: Adult male mice (2-3 months old, n=8) were randomly submitted, without a pre-swim, to a forced swim test of 6 minutes with immobility recorded in the last 4 minutes. Mice were injected intraperitoneally for 5 days with saline, imipramine (20 mg/kg), amitryptyline (15 mg/kg), or 7,8-dihydroxyflavone (5 mg/kg). The mice were allowed to adapt to the test room for 2 days, and the mice were placed in a clear glass cylinder with a diameter of 16 cm, half-filled with clear water at 24° C. […] Data are presented as mean±SEM; *p<0.05 against vehicle, **P<0.01 against vehicle and ***P<0.0001 against vehicle, student t-test.

CC(C)(C)n1nc(Cc2cccc3ccccc23)c2c(N)ncnc21 [1NMPP1]
immobility time, 1NMPP1 treated versus saline control groups (immobility time): No significant difference
blocking of BDNF-provoked TrkB phosphorylation (TrkB F616A): selectively blocked
blocking of 7,8-dihydroxyflavone-provoked TrkB phosphorylation (TrkB F616A; 0.5 μM 7,8-dihydroxyflavone): selectively blocked
effect of pretreatment on KA-provoked apoptosis (KA-provoked apoptosis; 1NMPP1 in drinking water): elevated KA-provoked apoptosis
apoptosis in TrkB F616A mice, treatment alone without KA (KA-provoked apoptosis; FIG. 24): no effect on apoptosis
blocking of BDNF-triggered Akt and Erk1/2 activation (Akt and Erk1/2): blocked
effect on Akt activation by 7,8-dihydroxyflavone (Akt and Erk1/2): partially decreased Akt activation
effect on Erk1/2 activation by 7,8-dihydroxyflavone (Akt and Erk1/2): failed to inhibit Erk1/2 activation

Br.O=c1cc(-c2ccc(F)cc2)[nH]c2c(O)c(O)ccc12 [2-(4-fluorophenyl)-7,8-dihydroxyquinolin-4(1H)-one.HBr]
TrkB activation (TrkB [1]): did not provoke the same level of TrkB activation

Br.O=c1cc(-c2cncnc2)oc2c(O)c(O)ccc12 [7,8-dihydroxy-2-(pyrimidin-5-yl)-4H-chromen-4-one.HBr]
TrkB activation (TrkB [1]): robustly provoked TrkB activation

Br.O=c1cc(-c2ccccc2)[nH]c2c(O)c(O)ccc12 [7,8-dihydroxy-2-phenylquinolin-4(1H)-one, 7,8-dihydroxy-2-phenylquinolin-4(1H)-one.HBr]
TrkB activation (TrkB [1]): did not provoke the same level of TrkB activation

Oc1cc(O)c2c(c1)O[C@H](c1ccc(O)c(O)c1)[C@@H](O)C2 [Cianidanol]
EC50 (T48 cells): 100 nM
suppression of apoptosis in T48 cell line (T48 cells): strongly suppressed apoptosis
Erk activation (Western) (Erk): activated
protection of hippocampal neurons from glutamate-induced apoptosis (hippocampal neurons): comparable anti-apoptosis activity as BDNF

COc1ccc(-c2cc(=O)c3c(O)cc(O)cc3o2)cc1O [Diosmetin, reference compound]
EC50 (T48 cells): 500 nM
suppression of apoptosis in T48 cell line (T48 cells): strongly suppressed apoptosis
caspase-3 activation in both wild-type and TrkB-/- neurons (Caspase-3 activation): non-selectively suppressed caspase-3 activation in both neurons
Akt activation (Western) (Akt): activated
Erk activation (Western) (Erk): activated
protection of hippocampal neurons from glutamate-induced apoptosis (hippocampal neurons): only slightly protected neurons

Oc1ccc([C@H]2Oc3cc(O)cc(O)c3C[C@H]2O)cc1 [Epiafzelechin]
suppression of apoptosis in T48 cell line (T48 cells): failed to suppress apoptosis
protection of hippocampal neurons from glutamate-induced apoptosis (hippocampal neurons): only slightly protected neurons

Oc1ccc2c(c1)O[C@H](c1ccc(O)c(O)c1)[C@@H](O)C2 [Fisetinidol]
suppression of apoptosis in T48 cell line (T48 cells): failed to suppress apoptosis
protection of hippocampal neurons from glutamate-induced apoptosis (hippocampal neurons): no effect

CC1=CC(=O)c2ccccc2C1=O [Menadione]
suppression of apoptosis in T48 cell line (T48 cells): strongly suppressed apoptosis
protection of hippocampal neurons from glutamate-induced apoptosis (hippocampal neurons): comparable anti-apoptosis activity as BDNF

O=C1C[C@@H](c2ccccc2)Oc2cc(O)cc(O)c21 [Pinocembrin, reference compound]
EC50 (T48 cells): 100 nM
suppression of apoptosis in T48 cell line (T48 cells): strongly suppressed apoptosis
TrkB dimerization (TrkB [2]; GST-TrkB and HA-TrkB, 0.5 μM, 30 minutes, FIG. 14): failed
caspase-3 activation in both wild-type and TrkB-/- neurons (Caspase-3 activation): non-selectively suppressed caspase-3 activation in both neurons
Erk activation (Western) (Erk): activated
protection of hippocampal neurons from glutamate-induced apoptosis (hippocampal neurons): comparable anti-apoptosis activity as BDNF

O=c1c(O)c(-c2ccc(O)c(O)c2)oc2cc(O)cc(O)c12 [Quercetin, reference compound]
Erk activation (Western) (Erk): activated

CN(C)CCC=C1c2ccccc2CCc2ccccc21 [amitryptyline]
swimming immobility (immobility): decreased

CN(C)CCCN1c2ccccc2CCc2ccccc21 [imipramine]
swimming immobility (immobility): decreased

B1: BDNF: brain-derived neurotrophic factor, positive control, from Roche (protein, UniProt P23560 19-247, looked up)
Neurotrophic factor BDNF …: APMKEANIRGQGGLAYPGVRTHGTLESVNGPKAGSRGLTSLADTFEHVIEELLDEDQKVRPNEENNKDADLYTSRVMLSSQVPLEPPLLFLLEEYKNYLDAANMSMRVRRHSDPARRGELSVCDSISEWVTAADKKTAVDMSGGTVTVLEKVPVSKGQLKQYFYETKCNPMGYTKEGCRGIDKRHWNSQCRTTQSYVRALTMDSKKRIGWRFIRIDTSCVCTLTIKRGR
suppression of apoptosis in T48 cell line (T48 cells): decreased apoptosis
dimerization of TrkB with TrkA receptor (TrkB [2]; GST-TrkB and HA-TrkA cotransfected): failed to dimerize with TrkA receptor

Reference: patent publication US9895344B2, “Treating various disorders with 7,8-dihydroxyflavone and derivatives thereof” (EMORY UNIVERSITY, priority 2008, dated 2018)
